According to PMC5698590 (British Journal of Clinical Pharmacology, 2017):
Entries after “also recorded” stand apart in the source; their conditions may differ. Like-named read-outs stand apart in the source and are kept apart here. Marks after values point to notes of the source that are not given here.

Assays:
[1] = Population pharmacokinetic modelling of DHA and piperaquine plasma concentrations in healthy Thai volunteers; assay type: in vivo, human; conditions: for half-life / AUC / Cmax / Tmax: both sexes, plasma, oral; for AUC: read-out: AUC (time zero to infinity), median (range); for Cmax: read-out: CMAX, median (range); for Tmax: read-out: TMAX, median (range); for MTT (mean transit time), population estimate (%RSE): oral DHA-piperaquine three tablets
Method: It was a descriptive pharmacokinetic-pharmacodynamic study and no formal sample size calculations were performed. […] All volunteers received primaquine alone in the first phase, followed by a washout period of 1 week. In the second and third phases, volunteers received DHA-piperaquine alone and DHA-piperaquine coadministered with primaquine at random, with an intervening washout period of 8 weeks. Study drug regimens comprised two tablets of primaquine (each tablet containing 15 mg primaquine base) and three tablets of co-formulated DHA-piperaquine (each tablet containing 40 mg DHA and 320 mg piperaquine phosphate). Study drugs were administered in the morning, 30 min after a light meal (~200 kcal and 8 g fat) with a glass of water. Venous blood samples (2 ml) were collected into fluoride-oxalate blood collection tubes. Blood samples were taken at 0 (predose), 0.25, 0.5, 1, 1.5, 2, 3, 4, 6, 8, 10, 12, and 24 h postdose. Additional blood samples were taken at days 3, 4, 7, 11, 15, 22, and 36 for piperaquine drug measurements. The exact drug administration and sampling times were recorded. Blood and plasma were separated by centrifugation at 2000 × g at 4°C for 7 min. All plasma samples were stored below -70°C and transferred on dry ice to the Department of Clinical Pharmacology, Mahidol-Oxford Tropical Medicine Research Unit (MORU), Bangkok, Thailand, for drug quantification. Plasma concentrations of DHA and piperaquine were measured using solid-phase extraction followed by liquid chromatography coupled with tandem mass spectrometry 25, 26. Quality control samples at low, middle and high concentration (5.87, 117 and 1880 ng ml^-1 for DHA and 4.50, 20.0 and 400 ng ml^-1 for piperaquine) were analysed in triplicate within each batch of study samples, to ensure the accuracy and precision of the drug assay. […] The lower limit of quantification (LLOQ) was set to be 2.00 ng ml^-1 for DHA and 1.50 ng ml^-1 for piperaquine. The laboratory is a participant in the QA/QC proficiency testing programme supported by the Worldwide Antimalarial Resistance Network 27. DHA and piperaquine plasma concentrations were transformed into their natural logarithms and analysed using a nonlinear mixed-effects modelling approach in NONMEM version 7.3 (Icon Development Solution, Ellicott City, MD, USA). […] version 2.9.0 28, Perl-speaks-NONMEM version 3.5.3 (PsN) 29 and Xpose version 4.0 30 were used for automation, model evaluation and diagnostics during the model-building process. The first-order conditional estimation method with interactions (continuous data only) or the Laplacian estimation method (a combination of continuous and categorical data) was used throughout modelling and simulation. […] Therefore, two LLOQ methods were evaluated during the model-building process 31. Data below the LLOQ were omitted (M1 method) or modelled as categorical data (M3 method). Model fitness was evaluated primarily by the objective function value (OFV; calculated by NONMEM as proportional to -2 × log-likelihood of the data). […] One-, two-, three- and four-compartment structural disposition models were evaluated for DHA and piperaquine. The best performing model was used to evaluate the absorption characteristics of DHA and piperaquine (i.e. first-order absorption with and without lag time, zero-order absorption and transit absorption). The transit compartment absorption model is a more mechanistic description of delayed absorption compared with the dichotomous properties of a lag-time model 32.

[2] = Drug-drug interaction with primaquine coadministration (stepwise and full covariate approach, bootstrap n = 1000); assay type: in vivo, human; conditions: for Effect of primaquine coadministration on pharmacokinetic properties: stepwise covariate approach
Description: All continuous and categorical covariates (aspartate aminotransferase, alanine aminotransferase, alkaline phosphatase, haemoglobin, blood urea nitrogen, serum creatinine level, albumin level, primaquine coadministration and age) were investigated by using a stepwise forward inclusion (P‐value <0.05), followed by stepwise backward elimination (P‐value >0.001). A strict P‐value of 0.001 for the backward elimination was used as there were relatively few subjects in the present study 34. Gender was not evaluated as a covariate owing to the substantial imbalance between male and female subjects (five males out of 16 subjects). The effect of primaquine coadministration was also modelled separately, using a full covariate approach in which the primaquine coadministration was implemented as a categorical covariate on all pharmacokinetic parameters (except relative bioavailability owing to identifiability issues) in the final pharmacokinetic model. The full covariate models were bootstrapped (n = 1000) to determine a potentially influential drug–drug interaction on primary and secondary pharmacokinetic parameters. A primaquine‐dependent change of more than ±25% in parameter estimates was deemed a clinically relevant drug–drug interaction.

[3] = cited from earlier work
QT interval = experiment: Population pharmacokinetic-pharmacodynamic model of piperaquine concentration vs double-delta-corrected QTc prolongation (12-lead ECG); assay type: in vivo, human
Method: Subjects were rested for at least 20 min before ECG measurements were taken (ECG‐1250 K, Nihon Kohden, Japan). 12‐lead ECG measurements were performed twice before drug administration, and at 1, 2, 4, 8, 12, and 24 h after each study drug administration. The ECGs were recorded at 10 mm mV^–1 sensitivity, and 25 mm s^–1 paper speed. Automatic readouts of all ECG measurements were collected but all ECGs with a reported QT interval greater than 450 ms were manually adjudicated by a research physician (unblinded) and a cardiologist (blinded). Other abnormal ECG waveforms were read by a cardiologist. Observed QT intervals were later corrected for heart rate by both the Fridericia and Bazett formulae 24. Data‐driven individual and study population correction factors were also evaluated (see section on methodology, below).
The observed QT interval must be corrected for heart rate in order to compare QT intervals between and within patients. Observed QT measurements were corrected by the traditionally used Bazett and Fridericia formulae (i.e. fixing the exponent (α) to 1/2 and 1/3, respectively, in Equation (5)). Furthermore, all observed individual QT and RR intervals from the placebo arm (i.e. primaquine‐alone arm) in a subject were used to determine the optimal individual QT correction factor (α) for each subject using ordinary least‐squares fit (Equation (5)). The calculated individual correction factor for a particular subject was then applied to all measured QT intervals for that subject, in order to generate corrected QT intervals (QTc) 24.
The appropriateness of the applied correction methods was evaluated by individual linear regression analysis of QTc vs. RR. The relationship between piperaquine drug concentrations and QRS, JT (i.e. QT – QRS) and QT intervals was evaluated with ordinary linear regression to assess the most appropriate modelling approach.
Double‐delta corrections are commonly performed to adjust for the observed circadian rhythm of ECG measurements 37. Thus, double‐delta‐corrected QTc prolongations (ΔΔQTc) were calculated by subtracting the placebo arm ΔQTc from the treatment arm ΔQTc, as in Equation (7). The primaquine‐alone arm was used as the placebo arm.
Calculated ΔΔQTc‐prolongations were used as the pharmacodynamic endpoint. Individually predicted piperaquine concentrations (CP) were obtained from imputing individual pharmacokinetic parameter estimates directly into the pharmacodynamic model. The relationship between drug exposure and QT prolongation was evaluated initially by a linear direct‐response pharmacodynamic model, as in Equation (8).
(8) ΔΔQTc=θ1+η1+θ2×CPt+εi where θ1 represents the typical baseline ΔΔQTc prolongation, η1 is the normally distributed between‐subject variability, θ2 is the slope of the exposure–response relationship and εi is the normally distributed residual error. Different exposure–response relationships (i.e. power model and EMAX model) were also investigated during the model development process. Hysteresis was investigated to account for a possible delayed exposure–response relationship (i.e. turn‐over and link models).
Age, gender, electrolyte levels (i.e. potassium and sodium) at admission and concomitant primaquine administration were evaluated as linear covariates on the piperaquine‐related ΔΔQTc prolongation, using a stepwise addition–deletion approach (as described above). Model evaluation and diagnostics were performed in the same manner as for the pharmacokinetic modelling approach.

[4] = human, with primaquine, Bayesian post hoc estimates
[5] = human, with primaquine, Bayesian post hoc estimates, read-out: t1/2 (terminal half-life), median (range) (converted)
[6] = human, without primaquine, Bayesian post hoc estimates
[7] = human, without primaquine, Bayesian post hoc estimates, read-out: t1/2 (terminal half-life), median (range) (converted)
[8] = healthy volunteers, typical individual 64 kg
[9] = healthy volunteers, typical individual 64 kg, two-compartment model
[10] = F fixed to 100% for the population
[11] = healthy volunteers, typical individual 64 kg, three-compartment model
[12] = full covariate approach, 95% CI included zero effect

C[C@H]1[C@@H](O)O[C@@H]2O[C@@]3(C)CC[C@H]4[C@H](C)CC[C@@H]1[C@@]24OO3 [dihydroartemisinin]
half-life ([1]; human, three-compartment model, not carried forward, read-out: Median terminal half-life from the three-compartment model (converted)): 3.11 h
AUC [1, 4]: 798 ng·h/mL
Cmax [1, 4]: 357 ng/mL
Tmax [1, 4]: 1.27 h
half-life [1, 5]: 2.2 h
AUC [1, 6]: 767 ng·h/mL
Cmax [1, 6]: 361 ng/mL
Tmax [1, 6]: 1.3 h
half-life [1, 7]: 2.2 h
MTT (mean transit time), population estimate (%RSE) [1, 8]: 0.567 (11.4%) h
CL/F (oral clearance), population estimate (%RSE) [1, 8]: 148 (10.6%) l h^-1
VC/F (apparent central volume of distribution), population estimate (%RSE) [1, 8]: 214 (16.9%) l
ka (absorption rate constant from last transit compartment to central compartment), population estimate (%RSE) [1, 8]: 2.89 (37.1%) h^-1
QP/F (inter-compartment clearance), population estimate (%RSE) [1, 9]: 28.5 (26.0%) l h^-1
VP/F (apparent peripheral volume of distribution), population estimate (%RSE) [1, 9]: 65.9 (19.1%) l
Between-occasion variability of ka, %CV (%RSE) ([1]; human, in vivo): 89.0% (23.7%) ^*
Between-occasion variability of ka, %CV (%RSE) ([1]; human, in vivo, listed as DHA): 89.0%
Effect of primaquine coadministration on pharmacokinetic properties ([2]; listed as DHA): did not affect the pharmacokinetic properties; also recorded: did not have a significant impact
Elimination half-life [3]: 1 to 2 h
Terminal half-life in previous reports [3]: 8.7 to 150 min

Clc1ccc2c(N3CCN(CCCN4CCN(c5ccnc6cc(Cl)ccc56)CC4)CC3)ccnc2c1 [piperaquine]
Between-occasion variability of F (relative bioavailability), %CV (%RSE) [1, 10]: 19.1% (13.3%) ^*
Between-subject variability of F (relative bioavailability), %CV (%RSE) [1, 10]: 17.9% (34.0%)
Cmax [1, 4]: 300 ng/mL
Tmax [1, 4]: 3.98 h
half-life [1, 5]: 530 h
Cmax [1, 6]: 332 ng/mL
Tmax [1, 6]: 3.76 h
half-life [1, 7]: 530 h
MTT (mean transit time), population estimate (%RSE) [1, 8]: 3.13 (9.42%) h
CL/F (oral clearance), population estimate (%RSE) [1, 8]: 27.4 (5.50%) l h^-1
VC/F (apparent central volume of distribution), population estimate (%RSE) [1, 8]: 751 (23.5%) l
QP1/F (inter-compartment clearance), population estimate (%RSE) [1, 11]: 206 (9.56%) l h^-1
QP2/F (inter-compartment clearance), population estimate (%RSE) [1, 11]: 71.5 (9.01%) l h^-1
VP1/F (apparent peripheral volume of distribution), population estimate (%RSE) [1, 11]: 1900 (8.23%) l
Between-occasion variability of MTT, %CV (%RSE) ([1]; human, in vivo): 32.2% (13.4%) ^*
Between-subject variability of CL/F, %CV (%RSE) ([1]; human, in vivo): 10.9% (37.2%)
Between-subject variability of QP2/F, %CV (%RSE) ([1]; human, in vivo): 24.1% (36.3%)
Between-subject variability of VC/F, %CV (%RSE) ([1]; human, in vivo): 42.4% (40.9%)
Variability in the absorption characteristics ([1]; human, in vivo): below 35%
Day 7 conc., median (range) ([1]; with primaquine, Bayesian post hoc estimates): 16.7 (13.8–28.9) ng ml^-1
Day 7 conc., median (range) ([1]; without primaquine, Bayesian post hoc estimates): 18.3 (10.5–34.9) ng ml^-1
Median decrease in central volume of distribution during concomitant primaquine [2, 12]: 37.3% (95% CI −67.6%, 33.7%)
Median increase in mean transit absorption time during concomitant primaquine [2, 12]: 26.8% (95% CI −21.2%, 62.5%)
Effect of primaquine coadministration on pharmacokinetic properties [2]: did not affect the pharmacokinetic properties; also recorded: did not have a significant impact
SLOPE (slope of the relationship between piperaquine concentration and ΔΔQTc prolongation), population estimate (%RSE) (QT interval; linear direct-response model, healthy volunteers): 0.0417 (12.5%) ms (ng ml^-1)^-1
Relationship between piperaquine drug concentrations and ΔQRS (QT interval; ordinary linear regression, P = 0.520): no significant relationship
Population mean increase in ΔΔQTc (QT interval) per 100 ng ml^-1 increase in piperaquine plasma concentration (QT interval; per 100 ng ml^-1, individually corrected QT, healthy volunteers): 4.17 ms
Terminal elimination half-life ([3]; introduction): 480 to 720 h
Increase in piperaquine trough concentrations at week 36 compared with week 4 ([3]; repeated bimonthly treatment doses): 267% (range 146–381%)
Increase in piperaquine trough concentrations at week 36 compared with week 4 ([3]; repeated monthly treatment doses): 336% (range 271–402%)
Median maximum piperaquine concentration ([3]; standard 3-day regimen of 50 mg kg^-1, pregnant and nonpregnant women with uncomplicated P. falciparum malaria): 244 ng/mL

COc1cc(NC(C)CCCN)c2ncccc2c1 (centres unmarked) [primaquine]
Relationship between ΔQTc and primaquine concentrations (QT interval; primaquine-alone arm, 30 mg base, ordinary linear regression): no correlation; also recorded: no impact on ventricular repolarization
Effect of primaquine on the piperaquine exposure-QTc prolongation relationship (QT interval; stepwise covariate approach): did not affect the relationship
